In this assay the test system is Plasmodium berghei. The experiment in a line: Luciferase/luciferin-expressing antifolate-resistant parasites were used to infect a culture of HepG2 cells that were pre-incubated with compounds. Infected hepatocytes emit light due to the luciferase reaction. Assay results are presented as the percent inhibition of light emission compared to control. […]. The assay is classed as functional. Particulars: sporozoite; for IC90: read-out: LUCIFERASE INFECTION ASSAY - IC90.

Bounds are passed on as bounds.

The values below come from ChEMBL document CHEMBL4483862, “Open-source discovery of chemical leads for next-generation chemoprotective antimalarials” (2018).

Broadly, the IC50 is the concentration needed to halve the response being measured. The term IC90 denotes the point of the concentration-response curve where the effect stands at 90%. Consider `Cn1cccc1C(=O)Nc1nc(-c2ccccn2)cs1`, for which the IC90 came out at 4.04 µM. Further, the 50% inhibitory concentration (IC50) (HEPG2TOX_HILL_SLOPE 2.43, HEPG2TOX_R_SQUARED 0.643, PBLUC_HILL_SLOPE 14.5, PBLUC_R_SQUARED 0.519, read-out: LUCIFERASE INFECTION ASSAY - IC50) came to 3.47 µM.

Regarding `C/C(=N\NC(N)=S)c1ccc(CC(C)C)cc1`, the IC90 is over 13.2 µM. The IC50 (HEPG2TOX_HILL_SLOPE 2.45, HEPG2TOX_R_SQUARED 0.895, PBLUC_HILL_SLOPE 1.49, PBLUC_R_SQUARED 0.577, read-out: LUCIFERASE INFECTION ASSAY - IC50) was 4.2 µM.

As to `COc1ccc(-c2ccnc3n[nH]c(-c4ccccc4)c23)cc1OC`, the IC90 came to 3.3 µM. For the same compound, for the setting “HEPG2TOX_HILL_SLOPE 2.45, HEPG2TOX_R_SQUARED 0.911, PBLUC_HILL_SLOPE 2.73, PBLUC_R_SQUARED 0.663, read-out: LUCIFERASE INFECTION ASSAY - IC50”, the half-inhibitory concentration (IC50) worked out at 1.48 µM.

As to `Cc1cc2ccccn2c1C(=O)c1ccc(-c2ccccc2)cc1`, the IC90 worked out at 3.77 µM. Moreover, the IC50 (HEPG2TOX_HILL_SLOPE 2.45, HEPG2TOX_R_SQUARED 0.945, PBLUC_HILL_SLOPE 19.6, PBLUC_R_SQUARED 0.427, read-out: LUCIFERASE INFECTION ASSAY - IC50) was 3.37 µM.

For `CCCCc1ccc2nc(NC(=O)c3cnc(C)cn3)sc2c1`, the IC90 was over 10 µM. Further, the IC50 (HEPG2TOX_HILL_SLOPE 2.45, HEPG2TOX_R_SQUARED 0.834, PBLUC_HILL_SLOPE 1.44, PBLUC_R_SQUARED 0.354, read-out: LUCIFERASE INFECTION ASSAY - IC50) was over 10 µM.

Turning to `COc1ccc(OC)c(-c2cs/c(=N\c3cccc(C)c3C)n2/N=C/c2ccc(C#N)cc2)c1`, the IC90 was over 10 µM. Moreover, the half-maximal inhibitory concentration (IC50) (HEPG2TOX_HILL_SLOPE 2.44, HEPG2TOX_R_SQUARED 0.954, PBLUC_HILL_SLOPE 4.56, PBLUC_R_SQUARED 0.492, read-out: LUCIFERASE INFECTION ASSAY - IC50) was determined as 6.34 µM.

Regarding `CCN(CC)S(=O)(=O)c1ccc(C)c(NC(=O)CCc2ncc(-c3ccc(C)cc3)o2)c1`, the IC90 came out at 8.55 µM. In addition, the IC50 (HEPG2TOX_HILL_SLOPE 2.43, HEPG2TOX_R_SQUARED 0.985, PBLUC_HILL_SLOPE 1.82, PBLUC_R_SQUARED 0.587, read-out: LUCIFERASE INFECTION ASSAY - IC50) was found to be 2.56 µM.

As to `Nc1ccc(OC2=C(Cl)C(=O)c3ccccc3C2=O)cc1`, the IC90 amounted to 5.91 µM. Further, under “HEPG2TOX_HILL_SLOPE 2.46, HEPG2TOX_R_SQUARED 0.976, PBLUC_HILL_SLOPE 10.6, PBLUC_R_SQUARED 0.396, read-out: LUCIFERASE INFECTION ASSAY - IC50”, the IC50 is 4.8 µM.

For `c1csc(-c2cn3c(-c4ccc5ncccc5c4)cnc3cn2)c1`, the concentration for an effect of 90% (IC90) is 8.95 µM. Further, the half-inhibitory concentration (IC50) (HEPG2TOX_HILL_SLOPE 2.44, HEPG2TOX_R_SQUARED 0.922, PBLUC_HILL_SLOPE 1.55, PBLUC_R_SQUARED 0.705, read-out: LUCIFERASE INFECTION ASSAY - IC50) is 2.17 µM.

`CCOc1ccc2c(c1)O/C(=C\c1cc(Cl)cc3c1OCOC3)C2=O`: the IC90 turned out to be 6.53 µM. In addition, the IC50 (HEPG2TOX_HILL_SLOPE 2.45, HEPG2TOX_R_SQUARED 0.948, PBLUC_HILL_SLOPE 1.42, PBLUC_R_SQUARED 0.8, read-out: LUCIFERASE INFECTION ASSAY - IC50) was 1.39 µM.

Consider `Cc1ccc(CNC(=O)CN2CCCN(Cc3ccc(Cl)cc3)CC2)cc1F`, for which the IC90 is over 10 µM. Further, the IC50 (HEPG2TOX_HILL_SLOPE 2.47, HEPG2TOX_R_SQUARED 0.19, PBLUC_HILL_SLOPE 1.42, PBLUC_R_SQUARED 0.29, read-out: LUCIFERASE INFECTION ASSAY - IC50) turned out to be 4.84 µM.

Consider `O=[N+]([O-])c1ccc(Oc2cncc(Cl)c2)c(-c2nnc(-c3ccc(C(F)(F)F)cc3)o2)c1`, for which the IC90 was over 7.13 µM. Moreover, the IC50 (HEPG2TOX_HILL_SLOPE 2.45, HEPG2TOX_R_SQUARED 0.932, PBLUC_HILL_SLOPE 14.3, PBLUC_R_SQUARED 0.511, read-out: LUCIFERASE INFECTION ASSAY - IC50) stood at 6.55 µM.

With `O=C(NC1CC1)c1csc(C(O)c2cccc(OC(F)(F)F)c2)n1` (stereo unspecified), the IC90 came out at 0.901 µM. The IC50 (HEPG2TOX_HILL_SLOPE 2.47, HEPG2TOX_R_SQUARED 0.742, PBLUC_HILL_SLOPE 2.02, PBLUC_R_SQUARED 0.793, read-out: LUCIFERASE INFECTION ASSAY - IC50) is 0.304 µM.

On to `O=C(Nc1ccccc1)Nc1cc(NC(=O)Nc2ccccc2)cc(C(F)(F)F)c1`, for which the 90% effect concentration (IC90) was over 7.96 µM. Besides, the IC50 (HEPG2TOX_HILL_SLOPE 2.43, HEPG2TOX_R_SQUARED 0.913, read-out: LUCIFERASE INFECTION ASSAY - IC50) was over 7.96 µM.

On to `COc1cc(-c2ccc3ncc(-c4cccs4)n3n2)cc(OC)c1OC`, for which the concentration for an effect of 90% (IC90) was 4.08 µM. Also, the IC50 (HEPG2TOX_HILL_SLOPE 2.45, HEPG2TOX_R_SQUARED 0.958, PBLUC_HILL_SLOPE 3.17, PBLUC_R_SQUARED 0.64, read-out: LUCIFERASE INFECTION ASSAY - IC50) stood at 2.04 µM.

For `O=C(CSc1ccccc1)Nc1nc2ccccn2c1C(=O)NC1CCCCC1`, the IC90 is over 8.08 µM. Also, the IC50 (HEPG2TOX_HILL_SLOPE 2.44, HEPG2TOX_R_SQUARED 0.782, PBLUC_HILL_SLOPE 1.51, PBLUC_R_SQUARED 0.873, read-out: LUCIFERASE INFECTION ASSAY - IC50) stood at 2.83 µM.

As to `CN(C)C(=O)c1cccc(-c2cn3c(-c4ccc5c(ccn5C)c4)cnc3cn2)c1`, the IC90 is over 8.34 µM. Besides, the IC50 (HEPG2TOX_HILL_SLOPE 2.46, HEPG2TOX_R_SQUARED 0.94, PBLUC_HILL_SLOPE 1.63, PBLUC_R_SQUARED 0.793, read-out: LUCIFERASE INFECTION ASSAY - IC50) was determined as 2.64 µM.

With `CCOC(=O)c1c(C)oc2c1cc(OS(=O)(=O)c1ccc(NC(C)=O)cc1)c1ccccc12`, the IC90 was determined as 9.89 µM. The IC50 (HEPG2TOX_HILL_SLOPE 2.44, HEPG2TOX_R_SQUARED 0.99, PBLUC_HILL_SLOPE 3.26, PBLUC_R_SQUARED 0.643, read-out: LUCIFERASE INFECTION ASSAY - IC50) was found to be 5.05 µM.

With `CC(=O)Nc1nc(C(=O)Nc2ccc(Nc3ccccc3)cc2)cs1`, the IC90 is over 10 µM. Also, the IC50 (HEPG2TOX_HILL_SLOPE 2.43, HEPG2TOX_R_SQUARED 0.519, PBLUC_HILL_SLOPE 2.7, PBLUC_R_SQUARED 0.347, read-out: LUCIFERASE INFECTION ASSAY - IC50) came out at 4.68 µM.

On to `COc1ccc(-c2cnc3cnc(-c4cc(OC)cc(OC)c4)cn23)cc1`, for which the IC90 was 3.63 µM. Besides, the IC50 (HEPG2TOX_HILL_SLOPE 2.43, HEPG2TOX_R_SQUARED 0.949, PBLUC_HILL_SLOPE 13, PBLUC_R_SQUARED 0.663, read-out: LUCIFERASE INFECTION ASSAY - IC50) came out at 3.06 µM.

In the case of `Nc1ccc(-c2cnc3ccc(Cc4ccc(F)cc4)nn23)cn1`, the IC90 was 0.455 µM. The IC50 (HEPG2TOX_HILL_SLOPE 2.46, HEPG2TOX_R_SQUARED 0.531, PBLUC_HILL_SLOPE 14.2, PBLUC_R_SQUARED 0.359, read-out: LUCIFERASE INFECTION ASSAY - IC50) was 0.39 µM.

With `Cc1ccc(Oc2ccc(OCC(=O)NCCNc3ccc4ccccc4c3)cc2)cc1`, the IC90 is 6.61 µM. Moreover, for the setting “HEPG2TOX_HILL_SLOPE 2.47, HEPG2TOX_R_SQUARED 0.879, PBLUC_HILL_SLOPE 3.02, PBLUC_R_SQUARED 0.699, read-out: LUCIFERASE INFECTION ASSAY - IC50”, the 50% inhibitory concentration (IC50) turned out to be 3.2 µM.

As for `Cc1nc(C2CC2)ncc1-c1nc(=Nc2ccccc2)s[nH]1`, the IC90 was over 10.7 µM. In addition, the IC50 (HEPG2TOX_HILL_SLOPE 2.45, HEPG2TOX_R_SQUARED 0.884, PBLUC_HILL_SLOPE 3.42, PBLUC_R_SQUARED 0.283, read-out: LUCIFERASE INFECTION ASSAY - IC50) amounted to 7.23 µM.

As to `OCc1ccc(-c2cnc3cnc(-c4ccccc4Cl)cn23)cc1`, the IC90 worked out at 9.11 µM. Also, for the setting “HEPG2TOX_HILL_SLOPE 2.47, HEPG2TOX_R_SQUARED 0.702, PBLUC_HILL_SLOPE 3.47, PBLUC_R_SQUARED 0.368, read-out: LUCIFERASE INFECTION ASSAY - IC50”, the IC50 turned out to be 4.84 µM.

For the compound `CC(=O)c1cccc(-c2ccc3ncc(-c4cccc(C(F)(F)F)c4)n3n2)c1`, the IC90 amounted to 0.407 µM. Also, the IC50 (HEPG2TOX_HILL_SLOPE 2.43, HEPG2TOX_R_SQUARED 0.95, PBLUC_HILL_SLOPE 15.4, PBLUC_R_SQUARED 0.713, read-out: LUCIFERASE INFECTION ASSAY - IC50) was 0.353 µM.

As for `Cc1onc(-c2ccccc2)c1-c1ccnc(-c2ccc(Cl)cc2)n1`, the IC90 is 4.54 µM. The 50% inhibitory concentration (IC50) (HEPG2TOX_HILL_SLOPE 2.45, HEPG2TOX_R_SQUARED 0.972, PBLUC_HILL_SLOPE 2.42, PBLUC_R_SQUARED 0.716, read-out: LUCIFERASE INFECTION ASSAY - IC50) amounted to 1.83 µM.

For the compound `CC(=O)O[C@H]1CC[C@]23C(=O)O[C@]45CC[C@H](C6=CC(=O)OC6)[C@@]4(C)CCC2C5CC[C@]3(O)C1`, the IC90 is 0.747 µM. Besides, the 50% inhibitory concentration (IC50) (HEPG2TOX_HILL_SLOPE 2.43, HEPG2TOX_R_SQUARED 0.931, PBLUC_HILL_SLOPE 2.64, PBLUC_R_SQUARED 0.666, read-out: LUCIFERASE INFECTION ASSAY - IC50) was found to be 0.325 µM.

Regarding `Clc1ccccc1Nc1cc2c(cn1)ncn2Cc1ccco1`, the IC90 is over 10 µM. In addition, the 50% inhibitory concentration (IC50) (HEPG2TOX_HILL_SLOPE 2.43, HEPG2TOX_R_SQUARED 0.709, PBLUC_HILL_SLOPE 4.59, PBLUC_R_SQUARED 0.452, read-out: LUCIFERASE INFECTION ASSAY - IC50) turned out to be 7.52 µM.
